Entries after “also recorded” stand apart in the source; their conditions may differ.
Key:
Type in all cases: in vivo
[1] = system: Deroceras reticulatum (grey field slug); test: Example 1: pot test, treated winter wheat seed with 5 adult slugs per pot, 14 days
In short: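 Fludioxonil-disinfected winter wheat seed (Kampa, 40 per pot) sown on quartz sand over potting soil with 5 adult slugs per pot; ±15° C., ±90% RH, 12 h light/12 h dark, 4 replicates. Damaged seeds, plants, dead slugs and fecal pellets counted up to day 14; F-tests and Student-tests.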

[2] = system: Winter wheat (Kampa race) seeds; test: Seed germination test of treated winter wheat seeds (rolled in paper); conditions: 3x50 seeds, 6 days at 22° C.
In short: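 Seeds were disinfected with fludioxonil-containing Beret Gold (2 ml per kg seed) and coated with Sepiret® for formulations unsuitable for coating. Germination of 3×50 seeds rolled in paper was scored after 6 days at continuous 22° C. under a 16 hours light regime.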

[3] = system: Deroceras reticulatum (grey field slug); test: Example 2: pot re-test, treated winter wheat seed with 5 adult slugs per pot, 7 days
From the text: Based on the results of the experiment described in Example 1, a selection was made from the various test numbers of that experiment for re-testing, partly to confirm the conclusions of that experiment and to test the unexpected outcome of some test compounds.
The selection of test numbers (Test No.) used in the present experiment relative to those of the experiment described in Example 1 is shown in Table 7.
The same seeds as described in Example 1 were sown in earthenware pots with an internal diameter of 20 cm and a height of 18 cm, filled with 7 cm of potting soil (Trio BV, Weesp, The Netherlands) and with a top 2 cm of white quartz sand. A total of 40 winter wheat seeds was placed in each pot, in a pattern of concentric circles on top of the quartz sand, the germ of the seed facing upwards. To each pot a total of 5 adult specimens of the test slug Deroceras reticulatum (grey field slug) were added. The pots were incubated at 18-19° C. with a relative humidity of ±95% and light regime of ±18 hours light/6 hours dark, without artificial lighting. The pots were not irrigated overhead. In total, 4 parallel tests were performed for each test.
The number of damaged seeds was, the number of plants present (germinated and not eaten or damaged by the slugs), the number of dead slugs and of the number of fecal pellets were determined after 2, 3 and 7 days following the addition of the slugs.
The data were statistically analysed by using F-tests (α=0.05) and pair-wise Student-tests.

[4] = system: Grey field slug (Deroceras reticulatum); test: Example 3:  trial oilseed rape, treated seed, 5 slugs per plot; conditions: doses of 10.4 and 20.8 ml per kg seed
From the text: The compounds and doses used are described in table 12.
Trial Data Cultivaton • Location: Glasshouse • Plots consist of: One earthenware pot, diameter 20 cm, height 18 cm • Trial medium: 7 cm of peat based potting compost, covered with silversand • Cultivar: Talent (00) • Thousand seed weight: 7.0 g • Seed treatments: Carried out on 12 Mar. 2004. The fungicide treatment was 4 g a.i. TMTD per kg seed • Sowing date: 9 Apr. 2004 • Number of seeds per pot: 40 • Experimental layout: Randomised block design • Number of replicates: 4 (I to IV), Annex 1 • Temperature during cultivation: 16 hours 20° C., 8 hours 15° C. Trial • Location: Laboratory • Starting date: 20 Apr. 2004 • Slug species: Grey field slug (Deroceras reticulatum). The slugs were collected from the field and only healthy individuals were used. • Number of slugs per plot: 5 • Temperature during trial: ±18° C. • Relative humidity during trial: ±90% Assessment
After starting the trial, assessments were made on 21, 23 and 26 April. At each assessment, the total numbers of plants, the numbers of attacked plants, the numbers of dead slugs and the numbers of fecal pellets were counted. […] In addition, the numbers of normal plants were counted on 23 and 26 April and the fresh aboveground plant weight per plot was assessed on 27 April. […]
Data were analysed using analysis of variance and Student's t-distribution with the PPAIR procedure.

[5] = 2 ml formulated per kg seed, 2 days after sowing
[6] = 2 ml formulated per kg seed, 3 days after sowing
[7] = 2 ml formulated per kg seed, 7 days after sowing
[8] = 2 ml formulated per kg seed, 10 days after sowing
[9] = 2 ml formulated per kg seed, 14 days after sowing
[10] = 10 ml formulated per kg seed, 2 days after sowing
[11] = 10 ml formulated per kg seed, 3 days after sowing
[12] = 10 ml formulated per kg seed, 7 days after sowing
[13] = 10 ml formulated per kg seed, 10 days after sowing
[14] = 10 ml formulated per kg seed, 14 days after sowing
[15] = Example 2, 2 ml formulated per kg seed, 2 days after sowing
[16] = Example 2, 2 ml formulated per kg seed, 3 days after sowing
[17] = Example 2, 2 ml formulated per kg seed, 7 days after sowing
[18] = Example 2, after 2, 3 and 7 days

`N#CN=C1SCCN1Cc1ccc(Cl)nc1` [thiacloprid, N-[3-(6-chloropyridin-3-ylmethyl)thiazolidin-2-ylidene]cyanamide] was tested, and the “number of utilizable plants after 14 days” value ([1]; 2 ml formulated per kg seed) was 28.8, the “percentage of damaged seeds after 14 days” value ([1]; 2 ml formulated per kg seed) was 13% and the “Mean number of damaged seeds per pot” value [1, 5] was 1.3. For the same compound, the “Mean number of dead slugs per pot” value [1, 5] was 0, the “Mean number fecal pellets per pot” value [1, 6] was 14 and the “Mean number of damaged seeds per pot” value [1, 6] was 3.3. The “Mean number of dead slugs per pot” value [1, 6] was 0.3, the “Mean number of plants present per pot” value [1, 6] was 6.3 and the “Mean number fecal pellets per pot” value [1, 7] was 23. For the same compound, the “Mean number of damaged seeds per pot” value [1, 7] was 7.5, the “Mean number of dead slugs per pot” value [1, 7] was 0.5 and the “Mean number of plants present per pot” value [1, 7] was 27.8. For the same compound, the “Mean number fecal pellets per pot” value [1, 8] was 17, the “Mean number of damaged seeds per pot” value [1, 8] was 5.5 and the “Mean number of dead slugs per pot” value [1, 8] was 0.5. The “Mean number of plants present per pot” value [1, 8] was 28.5, the “Mean number fecal pellets per pot” value [1, 9] was 21 and the “Mean number of damaged seeds per pot” value [1, 9] was 5.3. For the same compound, the “Mean number of dead slugs per pot” value [1, 9] was 0.8, the “Mean number of plants present per pot” value [1, 9] was 29.3 and the “number of utilizable plants after 14 days” value ([1]; 10 ml formulated per kg seed) was 34.5. The “percentage of damaged seeds after 14 days” value ([1]; 10 ml formulated per kg seed) was 8%, the “Mean number of damaged seeds per pot” value [1, 10] was 0.5 and the “Mean number of dead slugs per pot” value [1, 10] was 0. For the same compound, the “Mean number fecal pellets per pot” value [1, 11] was 5, the “Mean number of damaged seeds per pot” value [1, 11] was 1.5 and the “Mean number of dead slugs per pot” value [1, 11] was 0. The “Mean number of plants present per pot” value [1, 11] was 10.5, the “Mean number fecal pellets per pot” value [1, 12] was 8 and the “Mean number of damaged seeds per pot” value [1, 12] was 3.3. The “Mean number of dead slugs per pot” value [1, 12] was 0, the “Mean number of plants present per pot” value [1, 12] was 32.8 and the “Mean number fecal pellets per pot” value [1, 13] was 7. The “Mean number of damaged seeds per pot” value [1, 13] was 3.3, the “Mean number of dead slugs per pot” value [1, 13] was 0.3 and the “Mean number of plants present per pot” value [1, 13] was 34.0. The “Mean number fecal pellets per pot” value [1, 14] was 9, the “Mean number of damaged seeds per pot” value [1, 14] was 3.3 and the “Mean number of dead slugs per pot” value [1, 14] was 0.3. The “Mean number of plants present per pot” value [1, 14] was 34.8, the “damaged seeds relative to untreated control seed” value ([1]; Example 1, 2 or 10 ml per kg of seed, at each observation (after 2 days only 10 ml)) was “less damaged seeds than the untreated control seed” and the “protection of the wheat against slugs (conclusion)” value ([1]; Example 1, already at a low dose of 2 ml) was “good protection of the wheat against slugs”. For the same compound, the “fecal pellets relative to the untreated seed” value ([1]; Example 1, at each dosage and at each observation) was “large and significant reduction in the number of fecal pellets; also recorded: significantly less fecal pellets”, the “plants present and utilizable plants relative to the untreated seed” value ([1]; Example 1, both 2 and 10 ml per kg of seed, after 7 days) was “significantly more plants present and utilizable plants” and the “comparison with imidacloprid (fecal pellets, damaged seeds, plants present, utilizable plants)” value ([1]; Example 1, two weeks after the start) was “scored surprisingly better than the related compound imidacloprid”. The Percentage germinated ([2]; 2 ml formulated per kg seed) was 73%, the Percentage germinated ([2]; 10 ml formulated per kg seed) was 58% and the “result of seed treatment against slugs (conclusion)” value ([3]; Example 2) was “good results”. The “percentage of damaged seeds after 7 days” value ([3]; Example 2, 2 ml formulated per kg seed) was 14%, the “Mean number of damaged seeds per pot” value [3, 15] was 3.5 and the “Mean number of dead slugs per pot” value [3, 15] was 0. The “Mean number of damaged seeds per pot” value [3, 16] was 4.5, the “Mean number of dead slugs per pot” value [3, 16] was 0 and the “Mean number of damaged seeds per pot” value [3, 17] was 5.8. For the same compound, the “Mean number of dead slugs per pot” value [3, 17] was 0.3, the “number of fecal pellets per pot relative to the untreated control” value [3, 18] was “significant reduction in the number of fecal pellets” and the “plants present relative to the untreated seed” value [3, 18] was “significantly more plants present”. The “number of damaged seeds relative to the untreated seed” value ([3]; Example 2, two days after the start) was “significant reduction in the number of damaged seeds”, the “Mean number of fecal pellets per pot” value ([3]; dosage 2 ml, 2 days) was 8 and the “Mean number of plants present per pot” value ([3]; dosage 2 ml, 2 days) was 12.5. The “Mean number of fecal pellets per pot” value ([3]; dosage 2 ml, 3 days) was 14, the “Mean number of plants present per pot” value ([3]; dosage 2 ml, 3 days) was 24.0 and the “Mean number of fecal pellets per pot” value ([3]; dosage 2 ml, 7 days) was 17. The “Mean number of plants present per pot” value ([3]; dosage 2 ml, 7 days) was 29.5, the “number of utilizable plants after 7 days” value ([3]; dosage 2 ml, 7 days) was 23.5 and the “damage (conclusion)” value [4] was “decreases the damage”.

Source: patent US20070167492A1, “Molluscicidal agents” (priority 2003, published 2007)
